How the values were obtained:
[1] = test system: human ovarian cancer cells; assay: Selective cancer cell-killing in ovarian cancer patient samples, cancer cells; format: cell-based; conditions: 24 hours; Calcein-AM; FIG. 9B
Excerpt: Evaluating selective cancer cell-killing in ovarian cancer patient samples. Cancer and non-cancer cells were isolated from primary tumors, intraperitoneal (IP) fluid, omental adipose tissue (common metastatic site), and blood from 6 ovarian cancer patients. The following cells were isolated and tested: cancer cells (digested tumor with depletion of fibroblasts, CD45+ cells, and […] cells), non-cancer immune cells (digested omental cells with depletion of neutrophils or CD45+ cells from tumor tissue), peripheral blood mononuclear cells (PBMCs; B cells, T cells, monocytes, and NK cells), fibroblasts (isolated from tumor samples using fibroblast isolation kit), and IP cells (composed of >90% CD45+ immune cells, including B, T, myeloid, NK cells). Isolated cells were plated and exposed to A2M:MutF, doxorubicin (standard of care chemotherapy), or oxaliplatin (standard of care chemotherapy) for 24 hours. Cell viability was assessed by Calcein-AM.

Human fibrinogen = biological target: T1, Human fibrinogen (Homo sapiens, UniProt P02671+P02675+P02679); assay: Fibrinogen cleavage assay; format: biochemical; conditions: 1 hr at 37° C.; Western Blot; FIG. 6B
T1 construct: purchased Sigma
T1 sequence (P02671 20-629 limits assumed): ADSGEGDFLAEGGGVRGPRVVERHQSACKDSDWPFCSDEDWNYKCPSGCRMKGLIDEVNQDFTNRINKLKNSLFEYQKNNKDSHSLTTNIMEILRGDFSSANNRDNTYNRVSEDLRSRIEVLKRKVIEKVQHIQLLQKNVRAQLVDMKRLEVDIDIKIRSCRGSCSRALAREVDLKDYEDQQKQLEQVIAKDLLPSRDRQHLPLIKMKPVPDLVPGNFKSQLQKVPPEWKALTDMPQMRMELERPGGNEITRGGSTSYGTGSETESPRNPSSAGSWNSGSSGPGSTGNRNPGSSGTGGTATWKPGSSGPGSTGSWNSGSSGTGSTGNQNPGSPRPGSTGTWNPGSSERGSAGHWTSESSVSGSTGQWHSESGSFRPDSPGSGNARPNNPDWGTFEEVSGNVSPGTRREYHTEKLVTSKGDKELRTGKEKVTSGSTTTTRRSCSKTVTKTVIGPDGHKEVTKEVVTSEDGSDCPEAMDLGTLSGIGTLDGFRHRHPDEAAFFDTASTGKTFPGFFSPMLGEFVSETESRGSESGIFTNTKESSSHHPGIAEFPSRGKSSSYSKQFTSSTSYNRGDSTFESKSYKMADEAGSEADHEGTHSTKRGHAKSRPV
T1 sequence (P02675 31-491): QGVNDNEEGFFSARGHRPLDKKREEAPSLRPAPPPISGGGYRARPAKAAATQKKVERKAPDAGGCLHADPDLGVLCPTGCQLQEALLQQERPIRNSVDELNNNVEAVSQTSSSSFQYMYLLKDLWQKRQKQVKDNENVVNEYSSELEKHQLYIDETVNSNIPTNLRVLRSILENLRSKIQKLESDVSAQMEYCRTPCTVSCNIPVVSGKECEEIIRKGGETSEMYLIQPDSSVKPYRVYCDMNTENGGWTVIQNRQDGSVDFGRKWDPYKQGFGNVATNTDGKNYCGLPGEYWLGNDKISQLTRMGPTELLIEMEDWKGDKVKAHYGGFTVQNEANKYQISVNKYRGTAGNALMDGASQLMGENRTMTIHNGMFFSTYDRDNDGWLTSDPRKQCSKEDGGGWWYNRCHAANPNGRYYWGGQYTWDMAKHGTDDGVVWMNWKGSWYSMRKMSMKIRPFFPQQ
T1 sequence (P02679 27-453): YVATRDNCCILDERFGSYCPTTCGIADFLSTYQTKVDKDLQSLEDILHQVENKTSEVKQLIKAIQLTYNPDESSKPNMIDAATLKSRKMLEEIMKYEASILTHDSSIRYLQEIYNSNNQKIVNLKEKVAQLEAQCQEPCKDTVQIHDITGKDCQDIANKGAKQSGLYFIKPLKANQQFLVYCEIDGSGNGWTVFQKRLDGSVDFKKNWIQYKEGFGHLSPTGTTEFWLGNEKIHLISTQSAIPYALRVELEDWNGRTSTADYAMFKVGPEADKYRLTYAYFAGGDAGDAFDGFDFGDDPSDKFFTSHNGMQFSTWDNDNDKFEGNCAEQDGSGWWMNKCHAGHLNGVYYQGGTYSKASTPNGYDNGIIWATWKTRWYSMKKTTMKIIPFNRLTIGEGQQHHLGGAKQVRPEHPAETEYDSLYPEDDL
Method: Fibrinogen cleavage assay. MutF was mixed with different concentrations of A2M to reach various molar ratios, followed by a 30-minute incubation at 37° C. in PBS. Human fibrinogen (Sigma) was incubated with pre-mixed A2M:MutF protein complexes at different molar ratios for 1 hr at 37° C. Samples containing 5 ug of fibrinogen were loaded on 4-15% gel and fibrinogen was detected by Western Blot with an anti-fibrinogen (cell signaling Technology). Gels were imaged by iBright 1500.

Elastin-F = assay: Elastin cleavage assay; format: biochemical; conditions: overnight at 37° C.; FIG. 6C
Method: Elastin cleavage assay. MutF was mixed with different concentrations of A2M to reach various molar ratios, followed by a 30-minute incubation at 37° C. in PBS. Elastin-F (1:100) was incubated with pre-mixed A2M:MutF protein complexes overnight at 37° C., and the degraded fluorescent signal was measured in the supernatant.

[2] = Coagulation Assay (PT, PTT, fibrinogen in plasma after IV injection); format: in vivo, Mice; conditions: mouse plasma 5 min after IV injection of 480 ug
Method: Coagulation Assay. Mice were injected with 200 μL of 480 ug of MutF or purified A2M:MutF protein complexes at a 1:2 molar ratio. Blood was collected in sodium citrate tubes and centrifuged at 1500×g for 15 minutes. 300 μl of plasma were frozen and shipped to IDEXX to be analyzed for Prothrombin time, Partial Thromboplastin time, and concentration of Fibrinogen.

[3] = Plasma Protection Assay (MutF activity on AAPV-AMC in plasma); format: biochemical; conditions: mouse plasma; MutF 400 nM; A2M:MutF 1:2; FIG. 3C
Method: Plasma Protection Assay. MutF (400 nM) was mixed with 200 nM A2M to reach a 1:2 molar ratio (A2M:MutF), followed by 30 minutes incubation at 37° C. in PBS. A plasma protection assay was performed in 384-black well-coated plate by adding 10 μL of sample with either 10 μL of PBS or 10 μL of mouse plasma samples in duplicates. 20 μL of the substrate AAPV-AMC at a concentration of 100 μM was added. Kinetics were measured on Varioskan LUX: 380 nm ex/460 nm (5 nm bandwidth), 37° C., top, 100 msec, 2 min for 16 reads. Vo was calculated as activity measurement.

| Fibrinogen cleavage (Human fibrinogen) | Compound | Killing of cancer cells from chemo-naïve vs chemo-treated patients [1] | Elastin cleavage (fluorescent signal) (Elastin-F) | Prothrombin time ([2]; FIG. 7A) | Partial Thromboplastin time ([2]; FIG. 7B) | Concentration of fibrinogen in plasma ([2]; FIG. 7C) | MutF activity in plasma [3] |
| --- | --- | --- | --- | --- | --- | --- | --- |
|  | COc1cccc2c1C(=O)c1c(O)c3c(c(O)c1C2=O)C[C@@](O)(C(=O)CO)C[C@@H]3O[C@H]1C[C@H](N)[C@H](O)[C@H](C)O1 [doxorubicin, reference compound] | reduced killing of cancer cells isolated from chemo-treated relative to chemo-naïve patients |  |  |  |  |  |
|  | O=C1[O][Pt]2([NH][C@@H]3CCCC[C@H]3[NH]2)[O]C1=O [oxaliplatin, reference compound] | reduced killing of cancer cells isolated from chemo-treated relative to chemo-naïve patients |  |  |  |  |  |
| does cleave fibrinogen | MutF: porcine pancreatic elastase (PPE) protein 'Mutant F', Q211F, SEQ ID NO: 5 |  | does cleave elastin | increases PT and PTT times | increases PT and PTT times | causes reductions in fibrinogen levels | plasma inhibits MutF activity |

— US20260232818A1, “PHARMACEUTICAL COMPOSITIONS COMPRISING PROTEIN COMPLEXES” (Onchilles Pharma, Inc., priority 2023, published 2026)
